{"source": "patent US12653191B2", "about": "“Active compound combinations” (Bayer Aktiengesellschaft, priority 2020, dated 2026)", "key": {"Alternaria alternate": {"tested_on": "Alternaria alternate", "test": "in vitro-Test with fungal microorganisms, Method A (tables A1-A12)", "assay_type": "cell-based, Alternaria alternata", "details": "Alternaria, applied alone, read-out: Efficacy %", "method_in_brief": "(§1)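 Readout: extinction at 620 nm, measured at start and again 3-5 days later, giving efficacy versus untreated control (0% = control growth, 100% = no growth). Compounds were evaporated from methanol/emulsifier before adding potato dextrose medium with fungal spores or mycelium; incubation 20° C, 85% RH.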"}, "Alternaria alternata": {"tested_on": "Alternaria alternata", "test": "in vitro-Test with fungal microorganisms, Method B (tables A13-A22)", "assay_type": "cell-based", "details": "Alternaria alternata, read-out: Efficacy", "method_in_brief": "(§2)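 Cpd in MeOH + alkylaryl-polyglycol-ether, solvent evaporated; liquid medium + fungal spores/mycelium added; OD600 read; 3–7 d, 20° C., 85% RH; growth inhibition by photometry, % efficacy vs untreated ctrl.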"}, "Botrytis cinerea": {"tested_on": "Botrytis cinerea", "test": "in vitro-Test with fungal microorganisms, Method A (tables B1-B14)", "assay_type": "cell-based", "details": "Botrytis cinerea, alone, read-out: Efficacy %", "method_in_brief": "as §1"}, "Cercospora beticola [1]": {"tested_on": "Cercospora beticola", "test": "in vitro-Test with fungal microorganisms, Method A (tables C1-C10)", "assay_type": "cell-based", "details": "Cercospora beticola, read-out: Efficacy %", "method_in_brief": "as §1"}, "Cercospora beticola [2]": {"tested_on": "Cercospora beticola", "test": "in vitro-Test with fungal microorganisms, Method B (tables C11-C20)", "assay_type": "cell-based", "details": "Cercospora beticola, single compound, 0.008 ppm; read-out: Efficacy %", "method_in_brief": "as §2"}, "[3]": {"tested_on": "Colletotrichum lindemuthianum", "test": "in vitro-Test with fungal microorganisms, Method A (tables D1-D8)", "assay_type": "cell-based", "details": "Colletotrichum lindemuthianum, read-out: Efficacy %", "method_in_brief": "as §1"}, "Cordana musae": {"tested_on": "Cordana musae", "test": "in vitro-Test with fungal microorganisms, Method A (tables E1-E8)", "assay_type": "cell-based", "details": "Neocordana musae, read-out: Efficacy %", "method_in_brief": "as §1"}, "Diaporthe citri [4]": {"tested_on": "Diaporthe citri", "test": "in vitro-Test with fungal microorganisms, Method A (tables F1-F11)", "assay_type": "cell-based", "details": "Diaporthe citri, read-out: Efficacy", "method_in_brief": "as §1"}, "Diaporthe citri [5]": {"tested_on": "Diaporthe citri", "test": "in vitro-Test with fungal microorganisms, Method B (tables F12-F15)", "assay_type": "cell-based", "details": "Table F15; 0.008 ppm alone", "method_in_brief": "as §2"}, "Fusarium culmorum": {"tested_on": "Fusarium culmorum", "test": "in vitro-Test with fungal microorganisms, Method A (tables G1-G4)", "assay_type": "cell-based", "details": "Fusarium culmorum, read-out: Efficacy", "method_in_brief": "as §1"}, "Parastagonospora nodorum": {"tested_on": "Parastagonospora nodorum", "test": "in vitro-Test with fungal microorganisms, Method B (tables H5-H8)", "assay_type": "cell-based", "details": "Parastagonospora nodorum, read-out: Efficacy", "method_in_brief": "as §2"}, "[6]": {"tested_on": "Ustilago segetum var. avenae", "test": "in vitro-Test with fungal microorganisms, Method A (tables I1-I5)", "assay_type": "cell-based", "details": "alone, read-out: Efficacy %", "method_in_brief": "as §1"}, "[7]": {"tested_on": "Ustilago segetum var. avenae", "test": "in vitro-Test with fungal microorganisms, Method B (tables I6-I11)", "assay_type": "cell-based", "details": "read-out: Efficacy %", "method_in_brief": "as §2"}, "Colletotrichum coccodes": {"tested_on": "Colletotrichum coccodes", "test": "in vitro-Test with fungal microorganisms, Method B (tables J1-J11)", "assay_type": "cell-based", "details": "Colletotrichum coccodes, read-out: Efficacy %", "method_in_brief": "as §2"}}, "note": "Like-named read-outs stand apart in the source and are kept apart here.", "data": [{"smiles": "CON=C(C(=O)OC)c1ccccc1CON=C(C)c1cccc(C(F)(F)F)c1", "note": "[(3.020) trifloxystrobin, trifloxystrobin]", "values": [{"measurement": "inhibition of growth at 0.008 ppm", "setting": "Alternaria alternate; 0.008 ppm", "result": 44, "unit": "%"}, {"measurement": "inhibition of growth at 0.04 ppm", "setting": "Alternaria alternate; 0.04 ppm", "result": 87, "unit": "%"}, {"measurement": "inhibition of growth at 0.2 ppm", "setting": "Alternaria alternate; 0.2 ppm", "result": 95, "unit": "%"}, {"measurement": "inhibition of growth at 1 ppm", "setting": "Alternaria alternate; 1.0 ppm", "result": 96, "unit": "%"}, {"measurement": "inhibition of growth at 0.04 ppm", "setting": "Alternaria alternata; 0.04 ppm", "result": 49, "unit": "%"}, {"measurement": "inhibition of growth at 0.2 ppm", "setting": "Alternaria alternata; 0.2 ppm", "result": 85, "unit": "%"}, {"measurement": "inhibition of growth at 0.008 ppm", "setting": "Botrytis cinerea; 0.008 ppm", "result": 19, "unit": "%"}, {"measurement": "inhibition of growth at 0.04 ppm", "setting": "Botrytis cinerea; 0.04 ppm", "result": 0, "unit": "%"}, {"measurement": "inhibition of growth at 0.2 ppm", "setting": "Botrytis cinerea; 0.2 ppm", "result": 0, "unit": "%"}, {"measurement": "inhibition of growth at 1 ppm", "setting": "Botrytis cinerea; 1.0 ppm", "result": 37, "unit": "%"}, {"measurement": "inhibition of growth at 0.008 ppm", "setting": "Cercospora beticola [1]; 0.008 ppm alone", "result": 95, "unit": "%"}, {"measurement": "inhibition of growth at 0.04 ppm", "setting": "Cercospora beticola [1]; 0.04 ppm alone", "result": 100, "unit": "%"}, {"measurement": "inhibition of growth at 0.2 ppm", "setting": "Cercospora beticola [1]; 0.2 ppm alone", "result": 100, "unit": "%"}, {"measurement": "inhibition of growth at 1 ppm", "setting": "Cercospora beticola [1]; 1.0 ppm alone", "result": 100, "unit": "%"}, {"measurement": "inhibition of growth at 0.008 ppm", "setting": "Cercospora beticola [2]", "result": 96, "unit": "%"}, {"measurement": "inhibition of growth at 0.008 ppm", "setting": "[3]; mixing partner alone, 0.008 ppm", "result": 30, "unit": "%"}, {"measurement": "inhibition of growth at 0.04 ppm", "setting": "[3]; mixing partner alone, 0.04 ppm", "result": 80, "unit": "%"}, {"measurement": "inhibition of growth at 0.2 ppm", "setting": "[3]; mixing partner alone, 0.2 ppm", "result": 92, "unit": "%"}, {"measurement": "inhibition of growth at 1 ppm", "setting": "[3]; mixing partner alone, 1.0 ppm", "result": 88, "unit": "%"}, {"measurement": "inhibition of growth at 0.008 ppm", "setting": "[3]; single active at 0.008 ppm", "result": 25, "unit": "%"}, {"measurement": "inhibition of growth at 0.04 ppm", "setting": "[3]; single active at 0.04 ppm", "result": 66, "unit": "%"}, {"measurement": "inhibition of growth at 0.2 ppm", "setting": "[3]; single active at 0.2 ppm", "result": 85, "unit": "%"}, {"measurement": "inhibition of growth at 1 ppm", "setting": "[3]; single active at 1.0 ppm", "result": 84, "unit": "%"}, {"measurement": "inhibition of growth at 0.008 ppm", "setting": "Cordana musae; mixing partner alone", "result": 3, "unit": "%"}, {"measurement": "inhibition of growth at 1 ppm", "setting": "Cordana musae; mixing partner alone", "result": 66, "unit": "%"}, {"measurement": "inhibition of growth at 0.008 ppm", "setting": "Cordana musae; single substance", "result": 13, "unit": "%"}, {"measurement": "inhibition of growth at 0.04 ppm", "setting": "Cordana musae; single substance, 0.04 ppm", "result": 67, "unit": "%"}, {"measurement": "inhibition of growth at 0.2 ppm", "setting": "Cordana musae; single substance, 0.2 ppm", "result": 48, "unit": "%"}, {"measurement": "inhibition of growth at 1 ppm", "setting": "Cordana musae; single substance", "result": 77, "unit": "%"}, {"measurement": "inhibition of growth at 0.008 ppm", "setting": "Diaporthe citri [4]; applied alone", "result": 65, "unit": "%"}, {"measurement": "inhibition of growth at 0.04 ppm", "setting": "Diaporthe citri [4]; applied alone", "result": 95, "unit": "%"}, {"measurement": "inhibition of growth at 0.008 ppm", "setting": "Diaporthe citri [4]; single active", "result": 63, "unit": "%"}, {"measurement": "inhibition of growth at 0.04 ppm", "setting": "Diaporthe citri [4]; single active", "result": 95, "unit": "%"}, {"measurement": "inhibition of growth at 0.2 ppm", "setting": "Diaporthe citri [4]; single active, 0.2 ppm", "result": 95, "unit": "%"}, {"measurement": "inhibition of growth at 1 ppm", "setting": "Diaporthe citri [4]; single active, 1.0 ppm", "result": 96, "unit": "%"}, {"measurement": "Efficacy", "setting": "Diaporthe citri [5]", "result": 68, "unit": "%"}, {"measurement": "inhibition of growth at 0.2 ppm", "setting": "Fusarium culmorum; 0.2 ppm, alone", "result": 22, "unit": "%"}, {"measurement": "inhibition of growth at 1 ppm", "setting": "Fusarium culmorum; 1.0 ppm, alone", "result": 5, "unit": "%"}, {"measurement": "inhibition of growth at 0.04 ppm", "setting": "Fusarium culmorum; Table G1, 0.04 ppm alone", "result": 0, "unit": "%"}, {"measurement": "inhibition of growth at 0.2 ppm", "setting": "Fusarium culmorum; Table G1, 0.2 ppm alone", "result": 15, "unit": "%"}, {"measurement": "inhibition of growth at 1 ppm", "setting": "Fusarium culmorum; Table G1, 1.0 ppm alone", "result": 15, "unit": "%"}, {"measurement": "inhibition of growth at 0.008 ppm", "setting": "Parastagonospora nodorum; 0.008 ppm", "result": 17, "unit": "%"}, {"measurement": "inhibition of growth at 0.04 ppm", "setting": "Parastagonospora nodorum; 0.04 ppm", "result": 54, "unit": "%"}, {"measurement": "inhibition of growth at 0.2 ppm", "setting": "Parastagonospora nodorum; 0.2 ppm", "result": 83, "unit": "%"}, {"measurement": "inhibition of growth at 1 ppm", "setting": "Parastagonospora nodorum; 1 ppm", "result": 87, "unit": "%"}, {"measurement": "inhibition of growth at 0.008 ppm", "setting": "[6]; 0.008 ppm", "result": 19, "unit": "%"}, {"measurement": "inhibition of growth at 0.04 ppm", "setting": "[6]; 0.04 ppm", "result": 0, "unit": "%"}, {"measurement": "inhibition of growth at 1 ppm", "setting": "[6]; 1.0 ppm", "result": 64, "unit": "%"}, {"measurement": "inhibition of growth at 5 ppm", "setting": "[6]; 5.0 ppm", "result": 100, "unit": "%"}, {"measurement": "inhibition of growth at 0.04 ppm", "setting": "[7]; 0.04 ppm", "result": 38, "unit": "%"}, {"measurement": "inhibition of growth at 0.2 ppm", "setting": "[7]; 0.2 ppm", "result": 54, "unit": "%"}, {"measurement": "inhibition of growth at 1 ppm", "setting": "[7]; 1 ppm", "result": 60, "unit": "%"}, {"measurement": "inhibition of growth at 0.04 ppm", "setting": "Colletotrichum coccodes; 0.04 ppm", "result": 35, "unit": "%"}, {"measurement": "inhibition of growth at 0.008 ppm", "setting": "Colletotrichum coccodes; single active compound at 0.008 ppm", "result": 0, "unit": "%"}, {"measurement": "inhibition of growth at 1 ppm", "setting": "Colletotrichum coccodes; single active compound at 1 ppm", "result": 50, "unit": "%"}]}]}
